Measurements as given in patent US9562042B2, “α-oxoacyl amino-caprolactam” (Seikagaku Corporation, priority 2013, dated 2017).

Key:
[1] = system: cathepsin K; test: Measurement of cathepsin K inhibitory activity (decomposition of fluorescent substrate Z-Gly-Pro-Arg-MCA); type: biochemical
Protocol: Cathepsin K was prepared as follows. […] Specifically, the decomposition of 20 μM Z-Gly-Pro-Arg-MCA by cathepsin K was measured in 100 mM potassium sodium phosphate, 1 mM EDTA, 8 mM Cysteine, pH 6.0. The reaction was performed at 37° C. for 30 minutes and then quenched by the addition of 2×10^−5 M of calpeptin.

[2] = target: CYP3A4 (Homo sapiens, UniProt P08684); test: Measurement of CYP3A4 inhibitory activity (midazolam 1'-hydroxylation in human hepatic microsomes, DI and MBI); type: in vitro ADME; conditions: human hepatic (liver) microsomes, probe midazolam (1'-hydroxylation), inventive compounds (Table 4); for IC50 at 10 min: direct inhibition, midazolam, 37° C. 10 minutes, read-out: CYP3A inhibitory IC50 (μmol/L) DI; for IC50: mechanism based inhibition, pre-incubated 37° C. 30 minutes before midazolam, read-out: CYP3A inhibitory IC50 (μmol/L) MBI
Sequence of CYP3A4 (P08684 2-503): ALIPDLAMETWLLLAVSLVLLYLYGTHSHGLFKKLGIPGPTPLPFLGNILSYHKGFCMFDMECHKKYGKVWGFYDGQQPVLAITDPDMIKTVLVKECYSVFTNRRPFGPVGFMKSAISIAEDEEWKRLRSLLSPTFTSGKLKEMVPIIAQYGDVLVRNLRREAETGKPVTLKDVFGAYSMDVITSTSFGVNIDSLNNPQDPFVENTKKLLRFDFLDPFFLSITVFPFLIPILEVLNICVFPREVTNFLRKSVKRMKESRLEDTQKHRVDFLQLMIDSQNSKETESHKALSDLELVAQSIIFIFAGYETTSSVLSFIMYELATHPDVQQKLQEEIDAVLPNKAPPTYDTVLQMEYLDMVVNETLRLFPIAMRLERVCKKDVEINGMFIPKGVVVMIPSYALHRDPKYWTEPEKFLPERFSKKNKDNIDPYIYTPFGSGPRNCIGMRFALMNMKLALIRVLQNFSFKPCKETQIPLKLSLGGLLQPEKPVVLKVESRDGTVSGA
Protocol: The measurement of CYP3A4 inhibitory activity was performed with reference to the method of Newton et al. (Drug Metab. Dispos. 23, 154-158 (1995)) and the method described in JP 2007-236327 A.
A reaction mixture was prepared by mixing the compound of the present invention with midazolam as a typical substrate for CYP3A4 (see Food and Drug Administration (FDA) Guidance for Industry Drug Interaction Studies—Study Design, Data Analysis, Implications for Dosing, and Labeling Recommendations. FDA web site [online], www.fda.gov/downloads/drugs/guidancecomplianceregulatoryinformation/guidances/ucm292362.pdf), coenzyme NADPH-generating system, human hepatic microsomes, and a phosphate buffer. The reaction mixture was incubated at 37° C. for 10 minutes.
The coenzyme NADPH-generating system solution was prepared by mixing the materials shown in Table 1: the 13 mmol/L β-NADP^+ solution, the 33 mmol/L G-6-P solution, the solution of 10 U/mL G6PDH (Y) (manufactured by Oriental Yeast Co., Ltd.), and the 33 mmol/L MgCl2 solution in a ratio of 1:1:0.4:1 (v:v:v:v). […] The final concentrations of the compounds of the present invention and the comparative compounds were set at the levels considered to be necessary for the calculation of the IC50 values based on the results of the measurement performed at an arbitrary concentration in advance.
After the incubation, the reaction was quenched by the addition of an acetonitrile solution to the reaction mixture. The amount of 1′-hydroxymidazolam produced (the metabolite produced from midazolam by CYP3A4) was measured in the quenched sample with a high-performance liquid chromatography tandem mass spectrometer (LC-MS/MS). Each IC50 value for DI (direct inhibition) was determined from the amount of the produced 1′-hydroxymidazolam and the final concentration of the compound of the present invention or the comparative compound in the reaction mixture.
MBI (mechanism based inhibition) was evaluated as follows. After the reaction mixture not containing midazolam (but containing the compound of the present invention or the comparative compound, the coenzyme NADPH-generating system, the human hepatic microsomes, and the phosphate buffer) was pre-incubated at 37° C. for 30 minutes, midazolam was added to the reaction mixture. The reaction mixture was then incubated at 37° C. for 10 minutes. Subsequently, the reaction was quenched by the addition of an acetonitrile solution to the reaction mixture. The amount of 1′-hydroxymidazolam produced was measured in the quenched sample with an LC-MS/MS. As in the case of DI, each IC50 value for MBI was determined from the amount of the produced 1′-hydroxymidazolam and the final concentration of the compound of the present invention or the comparative compound in the reaction mixture.

Row | SMILES | CYP/CatK [1] | IC50 at 10 min [2] [µmol/L] | IC50 [2] [µmol/L]
1 | CC(C)[C@H](NC(=O)C1(NC(=O)N2CCSC2)CCCCC1)C(=O)C(=O)N[C@H]1CCCCNC1=O [Compound 1] | 56555 | 43.5 | 44.4
2 | CC(C)[C@H](NC(=O)C1(NC(=O)N2CCCC2)CCCCC1)C(=O)C(=O)N[C@H]1CCCCNC1=O [Compound 2] | 52214 | 101 | 73.1
3 | CC(C)[C@H](NC(=O)C1(NC(=O)[C@H]2CCCO2)CCCCC1)C(=O)C(=O)N[C@H]1CCCCNC1=O [Compound 3] | 40294 | 208 | 137
